Test results reported in USRE45313E1, “Exendin variant peptides” (priority 1999, dated 2014).

How the values were obtained:
leucine aminopeptidase = molecular target: T1, leucine aminopeptidase (Sus scrofa, UniProt P28839); assay: In vitro stability in leucine aminopeptidase solution; details: pH 7.4
T1 sequence (P28839 1-519): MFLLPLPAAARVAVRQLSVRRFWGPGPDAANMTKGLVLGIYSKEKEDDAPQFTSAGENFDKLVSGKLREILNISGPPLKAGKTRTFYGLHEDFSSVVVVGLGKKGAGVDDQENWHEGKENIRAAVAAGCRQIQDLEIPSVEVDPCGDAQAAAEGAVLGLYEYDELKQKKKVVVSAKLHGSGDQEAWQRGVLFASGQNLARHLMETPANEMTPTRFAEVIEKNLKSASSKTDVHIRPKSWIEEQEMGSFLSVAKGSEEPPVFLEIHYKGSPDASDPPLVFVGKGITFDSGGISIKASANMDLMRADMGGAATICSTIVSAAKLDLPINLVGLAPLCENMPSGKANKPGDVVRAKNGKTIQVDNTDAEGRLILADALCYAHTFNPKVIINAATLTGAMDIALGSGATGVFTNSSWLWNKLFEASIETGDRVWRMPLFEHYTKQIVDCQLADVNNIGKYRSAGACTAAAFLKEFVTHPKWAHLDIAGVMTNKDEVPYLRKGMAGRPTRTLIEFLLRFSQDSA
Description: (§1) A SHT200D block heater from Stuart Scientific was used for heating of the peptide/enzyme solutions during the stability experiments. The degradation of the test compounds was studied at 37° C. in 50 mM phosphate buffer solutions of pH 7.4 containing leucine aminopeptidase (25 U/ml) or carboxypeptidase A (1 U/ml) or 100 mM ammoniumbicarbonate buffer of pH 8.0 containing dipeptidyl aminopeptidase IV (0.5 U/ml). Experiments were initiated by addition of an aliquot (100 μl) of a stock solution (1 mg/ml) of the peptide in water to 900 μl preheated enzyme solution in an Eppendorf microvial giving an initial concentration of 0.1 mg/ml (˜1.7·10−5-1.8·10−5 M) of the peptide. The peptide/enzyme solution was kept at 37° C. and at appropriate time intervals samples of 100 μl were withdrawn from the peptide/enzyme solution and mixed thoroughly with 20 μl 25% TFA in acetonitrile in order to stop the enzymatic degradation process. The inactivated samples were transferred to autosampler vials and analysed for content of intact test compound by HPLC as described below.
(§2) Samples from the stability experiments performed as described above were analysed by gradient HPLC analysis using the instrumentation described above and the following experimental conditions.
(§3) In vitro stability studies with the present peptides and peptide conjugates in the presence of selected proteolytic enzymes are applied as a tool for evaluating the protection of said peptides against proteolysis in vivo.
(§4) Water used was of highest quality obtained from a Milli-Q water treatment system (Millipore, Bedford, Mass., U.S.A.). Acetonitrile (ACN) was of super gradient quality obtained from Labscan Ltd. (Dublin, Ireland). […] Leucine aminopeptidase (EC 3.4.11.1), Carboxypeptidase A (EC 3.4.17.1) and Dipeptidyl peptidase (Dipeptidyl aminopeptidase IV, EC 3.4.14.5) were all obtained from Sigma (St. Louis, Mo., U.S.A.). Gradient HPLC analysis was done using a Hewlett Packard HP 1100 HPLC system consisting of a HP 1100 Binary Pump, a HP 1100 Autosampler, A HP 1100 Column Thermostat and a HP 1100 Variable Wavelength Detector. Hewlett Packard Chem-station for LC software (Rev. A.06.01) was used for instrument control and data acquisition. A Vydac 238TP54 (150×4.6 mm I.D.) column packed with 5 μm, C18, 300 Å

carboxypeptidase A = molecular target: T2, carboxypeptidase A (Bos taurus, UniProt P00730); assay: In vitro stability in carboxypeptidase A solution; details: pH 7.4
T2 sequence (P00730 111-419): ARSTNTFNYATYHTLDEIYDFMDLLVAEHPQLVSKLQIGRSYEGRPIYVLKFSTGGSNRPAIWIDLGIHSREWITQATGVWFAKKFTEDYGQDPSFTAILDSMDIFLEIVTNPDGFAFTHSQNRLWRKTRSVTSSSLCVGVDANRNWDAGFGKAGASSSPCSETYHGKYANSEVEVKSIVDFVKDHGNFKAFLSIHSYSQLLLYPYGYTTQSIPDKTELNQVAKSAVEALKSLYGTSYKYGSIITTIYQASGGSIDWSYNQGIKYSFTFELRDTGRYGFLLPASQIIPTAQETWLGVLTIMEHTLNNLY
Description: as §1, §2, §3, §4

[1] = molecular target: dipeptidyl aminopeptidase IV (Sus scrofa, UniProt P22411); assay: In vitro stability in dipeptidyl aminopeptidase IV solution; details: pH 8
Description: as §1, §2, §3, §4

[2] = molecular target: T3, (Rattus norvegicus, UniProt P32301); details: inhibition of [^125I]GLP-1 binding; cited from earlier work
T3 construct: host or cells: brain tissue: nucleus of the solitary tract
T3 sequence (P32301 22-463): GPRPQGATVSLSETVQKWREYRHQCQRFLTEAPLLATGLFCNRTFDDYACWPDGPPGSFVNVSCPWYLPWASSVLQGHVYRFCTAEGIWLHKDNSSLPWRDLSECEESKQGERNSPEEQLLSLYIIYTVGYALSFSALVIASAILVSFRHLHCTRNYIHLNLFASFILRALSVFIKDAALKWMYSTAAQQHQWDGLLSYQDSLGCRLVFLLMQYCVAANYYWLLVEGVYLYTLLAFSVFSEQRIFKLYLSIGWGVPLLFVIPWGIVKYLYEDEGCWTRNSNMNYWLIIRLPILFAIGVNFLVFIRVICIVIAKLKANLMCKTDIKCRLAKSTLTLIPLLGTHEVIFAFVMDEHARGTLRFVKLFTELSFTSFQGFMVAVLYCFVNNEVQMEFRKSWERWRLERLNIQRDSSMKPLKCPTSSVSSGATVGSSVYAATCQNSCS

Sequence of dipeptidyl aminopeptidase IV (P22411 whole entry): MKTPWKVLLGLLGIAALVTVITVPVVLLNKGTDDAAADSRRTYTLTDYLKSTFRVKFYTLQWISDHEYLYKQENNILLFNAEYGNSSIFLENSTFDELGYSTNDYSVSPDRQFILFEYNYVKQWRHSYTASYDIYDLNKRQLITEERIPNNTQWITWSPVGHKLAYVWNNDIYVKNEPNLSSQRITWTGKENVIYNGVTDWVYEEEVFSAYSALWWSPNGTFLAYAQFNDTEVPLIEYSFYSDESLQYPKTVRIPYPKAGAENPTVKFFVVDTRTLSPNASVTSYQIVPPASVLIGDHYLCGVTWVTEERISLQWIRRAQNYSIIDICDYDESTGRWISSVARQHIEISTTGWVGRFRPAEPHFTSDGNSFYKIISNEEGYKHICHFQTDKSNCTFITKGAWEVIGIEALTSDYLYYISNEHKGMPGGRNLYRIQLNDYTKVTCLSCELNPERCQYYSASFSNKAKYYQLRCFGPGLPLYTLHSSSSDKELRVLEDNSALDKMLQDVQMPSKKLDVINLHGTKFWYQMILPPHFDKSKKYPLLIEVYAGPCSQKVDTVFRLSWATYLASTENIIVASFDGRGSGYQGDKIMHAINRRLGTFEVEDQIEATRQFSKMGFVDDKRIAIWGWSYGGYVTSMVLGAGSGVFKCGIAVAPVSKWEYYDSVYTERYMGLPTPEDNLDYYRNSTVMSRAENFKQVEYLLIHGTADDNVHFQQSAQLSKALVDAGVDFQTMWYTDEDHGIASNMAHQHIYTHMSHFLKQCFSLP

Compound	half-life at 0.1 mg/ml (leucine aminopeptidase)	half-life at 0.1 mg/ml (carboxypeptidase A)	half-life at 0.1 mg/ml [1]	Ki [2]
CC[C@H](C)[C@H](NC(=O)[C@H](Cc1ccccc1)NC(=O)[C@H](CCC(=O)O)NC(=O)[C@H](CCCCN)NC(=O)[C@H](C)NC(=O)[C@H](C)NC(=O)[C@H](CCC(N)=O)NC(=O)CNC(=O)[C@H](CCC(=O)O)NC(=O)[C@H](CC(C)C)NC(=O)[C@H](Cc1ccc(O)cc1)NC(=O)[C@H](CO)NC(=O)[C@H](CO)NC(=O)[C@@H](NC(=O)[C@H](CC(=O)O)NC(=O)[C@H](CO)NC(=O)[C@@H](NC(=O)[C@H](Cc1ccccc1)NC(=O)[C@@H](NC(=O)CNC(=O)[C@H](CCC(=O)O)NC(=O)[C@H](C)NC(=O)[C@@H](N)Cc1c[nH]cn1)[C@@H](C)O)[C@@H](C)O)C(C)C)C(=O)N[C@@H](C)C(=O)N[C@@H](Cc1c[nH]c2ccccc12)C(=O)N[C@@H](CC(C)C)C(=O)N[C@H](C(=O)N[C@@H](CCCCN)C(=O)NCC(=O)N[C@@H](CCCNC(=N)N)C(N)=O)C(C)C [GLP-1, H-hGLP-1(7-36)-NH2, reference compound]	152 min	48 min	2 min	–
[Tyr39]exendin-4	–	–	–	9.4 nM
